One experiment has as its system psychosis. The conditions noted are these: Snyder, Largent 1989; cited from earlier work.
The next experiment deals with sigma receptors. As to the kind of experiment: Inhibition of 3H-DTG binding to sigma receptors in rat brain in vitro. Conditions: 2 nM 3H-DTG, rat brain without cerebellum, 25° C., 20 min.

In the case of `C[C@@H]1CN(CCCn2c3ccccc3c3ccccc32)C[C@H](C)N1` [rimcazole, reference compound], in the experiment with psychosis, the “clinical effect in psychosis” value is listed as “clinically shows effects in the treatment of psychosis”.

The term IC50 denotes the concentration that gives 50% inhibition. For the molecule `c1ccc2c(c1)COC21CCN(CCCCc2cn(-c3ccncc3)c3ccccc23)CC1` [Compound 5g, 1'-[4-[1-(4-Pyridyl)-3-indolyl]-1-butyl]spiro[isobenzofuran-1(3H),4'-piperidine]], the 50% inhibitory concentration (IC50) at sigma receptors came to 4 nM. That is a single-digit nanomolar value.

On sigma receptors, `c1ccc(CCN2CCC3(CC2)OCc2ccccc23)cc1` [Compound 4c, 1'-(2-Phenyl-1-ethyl)-spiro[isobenzofuran-1(3h),4'-piperidine]] yielded an IC50 of 2.9 nM. The IC50 values of the last two molecules are within 1.5-fold of each other.

As to `Fc1ccc(C2=CC3CCC(C2)N3CCCCc2cn(-c3ccc(F)cc3)c3ccccc23)cc1` (stereo not drawn) [Compound 23, 1-(4-Fluorophenyl)-3-[4-[3-(4-fluorophenyl)-8-azabicyclo[3,2,1]-oct-2-en-8-yl]-1-butyl]-indol], the IC50 at sigma receptors is 2.5 nM.

`O=C1N(CCCCN2CCC3(CC2)OCc2ccccc23)CCN1C1CCCCC1` [Compound 3a, 1'-(4-(3-Cyclohexylimidazolidin-2-on-1-yl)-1-butyl)spiro[isobenzofuran-1 (3H), 4'-piperidine]] yielded an IC50 at sigma receptors of 2.2 nM.

In turn, `c1ccc2c(c1)OC1(CCN(CCCCc3c[nH]c4ccccc34)CC1)O2` [Compound 25b, 1'-[4-(3-Indolyl)-1-butyl]-spiro[1.3-benzodioxole-2,4'-piperidine]] showed a half-maximal inhibitory concentration (IC50) at sigma receptors of 36 nM.

Molecule `C1=C(CCCCN2CCC3(CC2)OCc2ccccc23)c2ccccc2C1` [Compound 27, 1'-(4-(1H-Inden-3-yl)-1-butyl)-spiro[isobenzofuran-1(3H) ,4'-piperidine]] registered an IC50 at sigma receptors of 0.11 nM.

`Fc1ccc(N2CC(CCCCN3CCC4(CC3)OCc3ccccc34)c3ccccc32)cc1` (stereo not drawn) [Compound 30, 1'-(4-(2,3-Dihydro-1-(4-fluorophenyl)-3-indolyl)-1-butyl)spiro[isobenzofuran-1(3H),4'-piperidine]] registered an IC50 on sigma receptors of 0.07 nM.

Turning to `c1ccc(CCCN2CCC3(CC2)OCc2ccccc23)cc1` [Compound 4d, 1'-(3-Phenyl-1-propyl)-spiro[isobenzofuran-1(3H),4'-piperidine]], the IC50 on sigma receptors came out at 1.1 nM.

With `O=C1N(CCN2CCC3(CC2)OCc2ccccc23)CCN1C1CCCCC1` [Compound 3d, 1'-(2-(3-Cyclohexylimidazolidin-2-on-1-yl)-1-ethyl)spiro[isobenzofuran-1(3H),4'-piperidine)], the IC50 at sigma receptors came out at 7.3 nM.

At sigma receptors, `CCCCCCCCCCCCCCCCCCN1CCC2(CC1)OCc1ccccc12` [Compound 4g, 1'-Octadecanyl-spiro[isobenzofuran-1(3H),4'-piperidine]] returned a 50% inhibitory concentration (IC50) of 46 nM.

Turning to `c1ccc(CCCCN2CCC3(CC2)Oc2ccccc2O3)cc1` [Compound 25a, 1'-(4-Phenyl-1-butyl)-spiro[1,3-benzodioxole-2,4'-piperidine]], at sigma receptors, the IC50 amounted to 11 nM.

The values above are taken from patent publication US6207677A, “Piperidine derivatives having anxiolytic effect” (H. Lundbeck A/S, priority 1991, dated 2001).
